# Data as given in patent US20120283217A1, “MODULATORS OF AMYLOID-BETA PRODUCTION” (SATORI PHARMACEUTICALS, INC., priority 2006, published 2012).
row,melting point [°C],Compound
1,141 to 143,CC(=O)O[C@H]1CC[C@]23C[C@]24CC[C@]2(C)[C@@H]([C@H](C)CCC5OC5(C)C)CC[C@@]2(C)[C@@H]4CC[C@H]3C1(C)C (stereo partly shown)
2,210 to 212,C/C=C1/C(=O)C[C@H]2[C@@H]3CC[C@H]4C[C@@H](O[Si](C)(C)C(C)(C)C)CC[C@]4(C)[C@H]3CC[C@]12C (stereo in doubt)
3,103 to 104,C[C@H](C1CO1)[C@H]1C(=O)C[C@H]2[C@@H]3CC=C4C[C@@H](O[Si](C)(C)C(C)(C)C)CC[C@]4(C)[C@H]3CC[C@]12C (stereo partly shown)
4,125 to 127,COC(=O)C(=O)C[C@@H](C)[C@H]1CC[C@@]2(C)C3CCC4C(C)(C)[C@@H](OC(C)=O)CC[C@]4(C)C3CC[C@]12C (stereo partly shown)
5,132 to 134,C=C[C@@H](C)[C@H]1C(=O)C[C@H]2[C@@H]3CC[C@H]4C[C@@H](O[Si](C)(C)C(C)(C)C)CC[C@]4(C)[C@H]3CC[C@]12C
6,129 to 131,CC(=O)O[C@H]1CC[C@]23C[C@]24CC[C@]2(C)[C@@H]([C@H](C)CCC5(C(C)C)CO5)CC[C@@]2(C)[C@@H]4CC[C@H]3C1(C)C (stereo partly shown)
7,203 to 205,CC(=O)O[C@H]1CC[C@]23C[C@]24CC[C@]2(C)[C@@H]([C@H](C)CC(=O)C(C#N)=P(c5ccccc5)(c5ccccc5)c5ccccc5)CC[C@@]2(C)C4CCC3C1(C)C (stereo in doubt) [Compound I-19]
8,138 to 142,C/C=C1\C(=O)C[C@H]2[C@@H]3CC=C4C[C@@H](O[Si](C)(C)C(C)(C)C)CC[C@]4(C)[C@H]3CC[C@]12C
9,168 to 170,C/C=C1/CCC2C3CC=C4C[C@@H](O)CC[C@]4(C)C3CC[C@]12C (stereo partly shown)
10,112 to 113,C/C=C1\C(=O)C[C@H]2[C@@H]3CC=C4C[C@@H](O)CC[C@]4(C)[C@H]3CC[C@]12C
11,201 to 212,"CC(=O)O[C@H]1CC[C@]23C[C@]24CC[C@]2(C)[C@@H]([C@H](C)CCC(=O)O)CC[C@@]2(C)C4CCC3C1(C)C (stereo in doubt) [Compound I-4, 3-β-O-acetyl-25,26,27-Trinorcycloartan-24-oic acid]"
12,203 to 205,CC(=O)O[C@H]1CC[C@]2(C)C3CC[C@]4(C)[C@@H]([C@H](C)CC(=O)O)CC[C@@]4(C)C3CCC2C1(C)C (stereo partly shown)
13,172 to 175,C[C@H](C(O)CO)C1C(=O)C[C@H]2[C@@H]3CC=C4C[C@@H](O[Si](C)(C)C(C)(C)C)CC[C@]4(C)[C@H]3CC[C@]12C (stereo partly shown)
14,112 to 114,C=C[C@@H](C)[C@H]1C2(CC3C4CC=C5C[C@@H](O[Si](C)(C)C(C)(C)C)CC[C@]5(C)C4CC[C@@]31C)OCCO2 (stereo partly shown)
15,119 to 121,"CC(=O)O[C@H]1CC[C@]23C[C@]24CC[C@]2(C)[C@@H]([C@H](C)CCC(=O)C(C)C)CC[C@@]2(C)C4CCC3C1(C)C (stereo partly drawn) [Compound I-3, 24-Oxocycloartanol-3-β-O-acetate]"
16,120 to 122,COC(=O)C(=O)C[C@@H](C)[C@H]1CC[C@@]2(C)C3CCC4C(C)(C)[C@@H](OC(C)=O)CC[C@@]45C[C@@]35CC[C@]12C (stereo in doubt) [Compound I-20]

row,melting point [°C],Compound
1,136 to 137,C/C=C1/CC[C@H]2[C@@H]3CC[C@H]4C[C@@H](O[Si](C)(C)C(C)(C)C)CC[C@]4(C)[C@H]3CC[C@]12C (stereo in doubt)
2,133 to 135,CC(=O)O[C@H]1CC[C@]23C[C@]24CC[C@]2(C)[C@@H]([C@H](C)CCC(=O)C(F)(F)F)CC[C@@]2(C)[C@@H]4CC[C@H]3C1(C)C
3,145 to 147,C/C=C1/[C@H](O)C[C@H]2[C@@H]3CC[C@H]4C[C@@H](O[Si](C)(C)C(C)(C)C)CC[C@]4(C)[C@H]3CC[C@]12C (stereo in doubt)
4,150 to 152,CC(C)(C)[Si](C)(C)O[C@H]1CC[C@@]2(C)C(=CC[C@@H]3[C@@H]2CC[C@]2(C)C(=O)CC[C@@H]32)C1 [Compound I-13]
5,128 to 130,C/C=C1/CC[C@H]2[C@@H]3CC=C4C[C@@H](O[Si](C)(C)C(C)(C)C)CC[C@]4(C)[C@H]3CC[C@]12C [Compound I-6]
6,124 to 126,C/C=C1/C(=O)CC2C3CC=C4C[C@@H](O)CC[C@]4(C)C3CC[C@]12C (stereo partly shown)
7,125 to 127,C=C[C@@H](C)[C@H]1C(=O)CC2C3CC=C4C[C@@H](O)CC[C@]4(C)C3CC[C@@]21C (stereo partly shown)
8,159 to 162,CC(C)(C)[Si](C)(C)O[C@H]1CC[C@@]2(C)[C@@H](CC[C@@H]3[C@@H]2CC[C@]2(C)C(=O)CC[C@@H]32)C1
9,290 to 292,CC(C#N)[C@H]1[C@@H](O)CC2C3CC=C4C[C@@H](O[Si](C)(C)C(C)(C)C)CC[C@]4(C)C3CC[C@@]21C (stereo in doubt) [Compound I-10]
10,124 to 126,C[C@H](C#N)[C@H]1C(=O)C[C@H]2[C@@H]3CC=C4C[C@@H](O)CC[C@]4(C)[C@H]3CC[C@]12C
11,145 to 147,C=C[C@@H](C)[C@H]1CC[C@@]2(C)[C@@H]3CC[C@H]4C(C)(C)[C@@H](OC(C)=O)CC[C@@]45C[C@@]35CC[C@]12C
12,151 to 154,C/C=C1/C(O)CC2C3CC=C4C[C@@H](O)CC[C@]4(C)C3CC[C@]12C (stereo partly shown)
13,137 to 139,C/C=C1/C(O)CC2C3CC=C4C[C@@H](O[Si](C)(C)C(C)(C)C)CC[C@]4(C)C3CC[C@]12C (stereo in doubt) [Compound I-7]
14,126 to 128,CC(=O)O[C@H]1CC[C@]23C[C@]24CC[C@]2(C)[C@@H]([C@H](C)CCC(O)C(C)C)CC[C@@]2(C)[C@@H]4CC[C@H]3C1(C)C (stereo partly shown)
15,156 to 158,C=C[C@@H](C)[C@H]1[C@H](O)C[C@H]2[C@@H]3CC=C4C[C@@H](O[Si](C)(C)C(C)(C)C)CC[C@]4(C)[C@H]3CC[C@]12C
16,161 to 163,C/C=C1/C(=O)C[C@H]2[C@@H]3CC=C4C[C@@H](O[Si](C)(C)C(C)(C)C)CC[C@]4(C)[C@H]3CC[C@]12C [Compound I-8]

row,Compound,melting point [°C]
1,"CC(=O)O[C@H]1CC[C@]23C[C@]24CC[C@]2(C)[C@@H]([C@H](C)CC(=O)O)CC[C@@]2(C)C4CCC3C1(C)C (stereo in doubt) [Compound I-17, 3β-Acetoxy-9,19-Cyclo-4,4,14-trimethyl-24-norchol-23-oic acid]",222 to 224
2,"CC(=O)O[C@H]1CC[C@]23C[C@]24CC[C@]2(C)[C@@H]([C@H](C)CC(=O)C(F)(F)F)CC[C@@]2(C)C4CCC3C1(C)C (stereo in doubt) [Compound I-18, 3β-Acetoxy-9,19-Cyclo-4,4,14-trimethyl-23-oxo-24-trifluorocholane]",170 to 173
